Test results taken from patent US12673945B2, “3-((8-((1H-pyrazol-4-yl)amino)imidazo[1,2-a]pyridin-3-yl)ethinyl)-n-phenylbenzamide derivative, method for preparing same, and pharmaceutical composition containing same as active ingredient for prevention or treatment of cancer” (DAEGU-GYEONGBUK MEDICAL INNOVATION FOUNDATION, priority 2020, dated 2026).

Key:
Type in all cases: cell-based
[1] = tested on: Parental (Ba/F3); test: Ba/F3 cell proliferation inhibition; conditions: BaF3; 72 hours, Cell Counting Kit-8
Description: (§1) […] lymphocyte cells, Parental (Ba/F3) and T315I-Bcr-Abl (Ba/F3) were seeded in 96-well plates at the density of 1×10^4/90 μL/well. A culture solution containing 9 concentrations (0.015 to 100 μM) of each example compound serially diluted in 3 folds or DMSO (control) were added to the plate ([…]) to a final concentration of 0 to 10 μM. The plate was incubated in a 37° C. CO2 incubator for 72 hours.
(§2) After incubation for 72 hours, the plate treated with the compound was treated with Cell Counting Kit-8 (Dojindo Molecular Technologies, Inc) solution at the concentration of 10 μL/well, and then mixed well. Then, the plate was incubated in a CO2 incubator at 37° C. for 2 hours, and absorbance at 450 nm was measured with a microplate reader. Data were expressed as percentage compared to vehicle treated cells and GI50 values were calculated using GraphPad Prism 5.0 (GraphPad software Inc., San Diego) GraphPad Prism 5.0.

[2] = tested on: T315I-Bcr-Abl (Ba/F3); test: Ba/F3 cell proliferation inhibition; conditions: BaF3; 72 hours, Cell Counting Kit-8
Description: as §1, §2

[3] = tested on: KOPM28 cells; test: human CML cell proliferation inhibition; conditions: 72 hours, Cell Counting Kit-8
Description: (§3) In order to evaluate the therapeutic effect of the compound according to the present invention on chronic myelogenous leukemia (CML), the following experiment was performed, and the results are shown in Table 6 below. Inhibitory activity to Bcr-Abl kinase was evaluated through the experiment using TCCS and KOPM28 cells, and inhibitory activity to T315I-Bcr-Abl kinase was evaluated through the experiment using T315I-TCCS and T315I-KOPM28 cells.
(§4) Human chronic myelogenous leukemia (CML) cells used in the experiment were TCCS, T315I-TCCS, KOPM28 and T315I-KOPM28, and the four types of cells were provided by University of Yamanashi.
(§5) Four types of human CML cells were each seeded in 96-well plates at the density of 1×10^4/90 μL/well. A culture solution containing 9 concentrations (0.000256 to 100 μM) of each example compound serially diluted in 5 folds or DMSO (control) were added to the plate (10 μL/well) to a final concentration of 0 to 10 μM. The plate was incubated in a 37° C. CO2 incubator for 72 hours.
as §2, with “8.0” for “5.0”, “Diego).” for “Diego) GraphPad Prism 5.0.”

[4] = tested on: T315I-KOPM28 cells; test: human CML cell proliferation inhibition; conditions: 72 hours, Cell Counting Kit-8
Description: as §3, §4, §5
as §2, with “8.0” for “5.0”, “Diego).” for “Diego) GraphPad Prism 5.0.”

[5] = tested on: T315I-TCCS cells; test: human CML cell proliferation inhibition; conditions: 72 hours, Cell Counting Kit-8
Description: as §3, §4, §5
as §2, with “8.0” for “5.0”, “Diego).” for “Diego) GraphPad Prism 5.0.”

[6] = tested on: TCCS cells; test: human CML cell proliferation inhibition; conditions: 72 hours, Cell Counting Kit-8
Description: as §3, §4, §5
as §2, with “8.0” for “5.0”, “Diego).” for “Diego) GraphPad Prism 5.0.”

GI50 [2] [nM]	Compound	GI50 [1] [nM]	GI50 [3] [nM]	GI50 [4] [nM]	GI50 [5] [nM]	GI50 [6] [nM]
50 to 500	Cc1cc(F)c(C(=O)Nc2ccc(CN3CCOCC3)c(C(C)(C)C#N)c2)cc1C#Cc1cnc2c(Nc3cnn(C)c3)cccn12 [Example 40, N-(3-(2-cyanopropan-2-yl)-4-(morpholinomethyl)phenyl)-2-fluoro-4-methyl-5-((8-((1-methyl-1H-pyrazol-4-yl)amino)imidazo[1,2-a]pyridin-3-yl)ethynyl)benzamide]	> 5000	< 10	> 100	> 100	< 10
< 50	Cc1c(F)cc(C(=O)Nc2cc(Oc3ccncc3)cc(C(F)(F)F)c2)cc1C#Cc1cnc2c(Nc3cnn(C)c3)cccn12 [Example 8, 3-fluoro-4-methyl-5-((8-((1-methyl-1H-pyrazol-4-yl)amino)imidazo[1,2-a]pyridin-3-yl)ethynyl)-N-(3-(pyridin-4-yloxy)-5-(trifluoromethyl)phenyl)benzamide]	> 5000	< 10	100	100	< 10
50 to 500	Cc1cc(F)c(C(=O)Nc2cc(CN3CCN(CC(F)(F)F)CC3)cc(C(C)(C)C#N)c2)cc1C#Cc1cnc2c(Nc3cnn(C)c3)cccn12 [Example 32, N-(3-(2-cyanopropan-2-yl)-5-((4-(2,2,2-trifluoroethyl)piperazin-1-yl)methyl)phenyl)-2-fluoro-4-methyl-5-((8-((1-methyl-1H-pyrazol-4-yl)amino)imidazo[1,2-a]pyridin-3-yl)ethynyl)benzamide]	> 5000	< 10	> 100	> 100	< 10
< 50	Cc1cc(F)c(C(=O)Nc2cc(Oc3ccncc3)cc(C(C)(C)C#N)c2)cc1C#Cc1cnc2c(Nc3cnn(C)c3)cccn12 [Example 26, N-(3-(2-cyanopropan-2-yl)-5-(pyridin-4-yloxy)phenyl)-2-fluoro-4-methyl-5-((8-((1-methyl-1H-pyrazol-4-yl)amino)imidazo[1,2-a]pyridin-3-yl)ethynyl)benzamide]	> 5000	< 10	100	< 10	< 10
50 to 500	Cc1cc(F)c(C(=O)Nc2ccc(CN3CCOCC3)c(C(F)(F)F)c2)cc1C#Cc1cnc2c(Nc3cnn(C)c3)cccn12 [Example 57, 2-fluoro-4-methyl-5-((8-((1-methyl-1H-pyrazol-4-yl)amino)imidazo[1,2-a]pyridin-3-yl)ethynyl)-N-(4-(morpholinomethyl)-3-(trifluoromethyl)phenyl)benzamide]	> 5000	< 10	> 100	100	100
50 to 500	Cc1cc(F)c(C(=O)Nc2ccc(CN3CCC(N(C)C)C3)c(C(F)(F)F)c2)cc1C#Cc1cnc2c(Nc3cnn(C)c3)cccn12 (stereo not drawn) [Example 59, N-(4-((3-(dimethylamino)pyrrolidine-1-yl)methyl)-3-(trifluoromethyl)phenyl)-2-fluoro-4-methyl-5-((8-((1-methyl-1H-pyrazol-4-yl)amino)imidazo[1,2-a]pyridin-3-yl)ethynyl)benzamide]	> 5000	< 10	> 100	100	< 10
< 50	Cc1cc(F)c(C(=O)Nc2ccc(CN3CCN(C)CC3)c(C(F)(F)F)c2)cc1C#Cc1cnc2c(Nc3cn[nH]c3)cccn12 [Example 109, 5-((8-((1H-pyrazol-4-yl)amino)imidazo[1,2-a]pyridin-3-yl)ethynyl)-2-fluoro-4-methyl-N-(4-((4-methylpiperazin-1-yl)methyl)-3-(trifluoromethyl)phenyl)benzamide]	500 to 5000	< 10	< 10	< 10	< 10
50 to 500	Cc1cc(F)c(C(=O)Nc2cc(-c3ccncc3)cc(C(F)(F)F)c2)cc1C#Cc1cnc2c(Nc3cnn(C)c3)cccn12 [Example 52, 2-fluoro-4-methyl-5-((8-((1-methyl-1H-pyrazol-4-yl)amino)imidazo[1,2-a]pyridin-3-yl)ethynyl)-N-(3-(pyridin-4-yl)-5-(trifluoromethyl)phenyl)benzamide]	> 5000	< 10	100	100	< 10
< 50	Cc1cc(F)c(C(=O)Nc2cc(Cn3cncn3)cc(C(C)(C)C#N)c2)cc1C#Cc1cnc2c(Nc3cn[nH]c3)cccn12 [Example 89, N-(3-((1H-1,2,4-triazol-1-yl)methyl)-5-(2-cyanopropan-2-yl)phenyl)-5-((8-((1H-pyrazol-4-yl)amino)imidazo[1,2-a]pyridin-3-yl)ethynyl)-2-fluoro-4-methylbenzamide]	> 5000	< 10	100	100	< 10
50 to 500	Cc1cc(F)c(C(=O)Nc2cc(N3CCN(C)CC3)cc(C(C)(C)C#N)c2)cc1C#Cc1cnc2c(Nc3cn[nH]c3)cccn12 [Example 80, 5-((8-((1H-pyrazol-4-yl)amino)imidazo[1,2-a]pyridin-3-yl)ethynyl)-N-(3-(2-cyanopropan-2-yl)-5-(4-methylpiperazin-1-yl)phenyl)-2-fluoro-4-methylbenzamide]	> 5000	< 10	> 100	100	< 10
50 to 500	Cc1cc(F)c(C(=O)Nc2cc(N(C)CCN(C)C)cc(C(C)(C)C#N)c2)cc1C#Cc1cnc2c(Nc3cnn(C)c3)cccn12 [Example 22, N-(3-(2-cyanopropan-2-yl)-5-((2-(dimethylamino)ethyl)(methyl)amino)phenyl)-2-fluoro-4-methyl-5-((8-((1-methyl-1H-pyrazol-4-yl)amino)imidazo[1,2-a]pyridin-3-yl)ethynyl)benzamide]	500 to 5000	< 10	100	100	< 10
50 to 500	Cc1cc(F)c(C(=O)Nc2cc(N(C)CCN(C)C)cc(C(F)(F)F)c2)cc1C#Cc1cnc2c(Nc3cnn(C)c3)cccn12 [Example 48, N-(3-((2-(dimethylamino)ethyl)(methyl)amino)-5-(trifluoromethyl)phenyl)-2-fluoro-4-methyl-5-((8-((1-methyl-1H-pyrazol-4-yl)amino)imidazo[1,2-a]pyridin-3-yl)ethynyl)benzamide]	> 5000	< 10	> 100	100	< 10
50 to 500	Cc1cc(F)c(C(=O)Nc2cc(N3CCC(N4CCN(C)CC4)CC3)cc(C(C)(C)C#N)c2)cc1C#Cc1cnc2c(Nc3cnn(C)c3)cccn12 [Example 25, N-(3-(2-cyanopropan-2-yl)-5-(4-(4-methylpiperazin-1-yl)piperidin-1-yl)phenyl)-2-fluoro-4-methyl-5-((8-((1-methyl-1H-pyrazol-4-yl)amino)imidazo[1,2-a]pyridin-3-yl)ethynyl)benzamide]	500 to 5000	< 10	100	> 100	< 10
